In ChEMBL document CHEMBL5316263, “Structure-Based Discovery of Selective Histone Deacetylase 8 Degraders with Potent Anticancer Activity” (J Med Chem, 2023):
Activity calls are given as the source filed them. The rule behind the calls is not given here.

Tests used:
A549 [1] = experiment: Induction of apoptosis in human A549 cells assessed as early apoptotic cells at 1.25 uM incubated for 72 hrs by annexin V-FITC staining based flow cytometry (reference value: 0.099%); format: functional
A549 [2] = experiment: Induction of apoptosis in human A549 cells assessed as early apoptotic cells at 10 uM incubated for 72 hrs by annexin V-FITC staining based flow cytometry (reference value: 0.099%); format: functional
A549 [3] = experiment: Inhibition of DNA damage repair in human A549 cells assessed as reduction in Ku70 protein level at 5 uM incubated for 24 hrs by immunofluorescence staining based analysis; format: functional, cell-based
[4] = biological target: T1, Protein cereblon/Histone deacetylase 8 (Homo sapiens) (UniProt Q9BY41+Q96SW2); experiment: Protac activity at CRBN/HDAC8 in human HBEC3-KT cells at 0.1 to 10 uM measured after 20 hrs by Western blot analysis; format: cell-based; conditions: dose 0.1-10 µM
T1 sequence (Q96SW2 whole entry, looked up): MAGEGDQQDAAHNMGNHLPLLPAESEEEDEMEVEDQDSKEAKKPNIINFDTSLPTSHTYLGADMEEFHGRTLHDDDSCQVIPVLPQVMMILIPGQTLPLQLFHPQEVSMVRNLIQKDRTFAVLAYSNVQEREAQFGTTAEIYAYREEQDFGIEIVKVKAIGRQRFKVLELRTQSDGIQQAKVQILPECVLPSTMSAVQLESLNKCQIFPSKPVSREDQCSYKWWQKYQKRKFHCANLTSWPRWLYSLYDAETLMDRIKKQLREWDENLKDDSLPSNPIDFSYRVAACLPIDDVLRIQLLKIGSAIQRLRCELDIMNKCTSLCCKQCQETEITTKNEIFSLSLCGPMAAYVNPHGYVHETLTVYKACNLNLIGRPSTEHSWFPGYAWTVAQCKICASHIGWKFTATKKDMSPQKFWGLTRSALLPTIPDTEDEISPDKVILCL
T1 sequence (Q9BY41 whole entry, looked up): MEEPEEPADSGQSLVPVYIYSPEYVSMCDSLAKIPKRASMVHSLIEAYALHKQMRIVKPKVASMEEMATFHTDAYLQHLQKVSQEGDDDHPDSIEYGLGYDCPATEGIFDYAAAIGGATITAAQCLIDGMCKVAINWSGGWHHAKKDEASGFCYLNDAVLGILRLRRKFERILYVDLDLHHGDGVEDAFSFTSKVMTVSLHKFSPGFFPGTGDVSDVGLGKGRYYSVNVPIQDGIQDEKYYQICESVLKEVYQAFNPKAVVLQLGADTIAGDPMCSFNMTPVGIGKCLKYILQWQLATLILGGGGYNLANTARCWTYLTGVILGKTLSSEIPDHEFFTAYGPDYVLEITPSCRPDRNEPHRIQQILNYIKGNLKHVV

A549 [5] = experiment: Induction of apoptosis in human A549 cells assessed as early apoptotic cells at 5 uM incubated for 72 hrs by annexin V-FITC staining based flow cytometry (reference value: 0.099%); format: functional
[6] = biological target: T1, Protein cereblon/Histone deacetylase 8 (Homo sapiens); experiment: Protac activity at CRBN/HDAC8 in human A549 cells assessed as reduction in HDAC8 protein levels at 10 uM measured after 18 hrs by Western blot analysis relative to control; format: cell-based; design: scale not given: the % may be the effect or the level left
A549 [7] = experiment: Effect on CYP1B1 gene in human A549 cells at 10 uM measured after 20 hrs by RNA sequencing analysis; format: functional, cell-based
A549 [8] = experiment: Effect on OASL gene in human A549 cells at 10 uM measured after 20 hrs by RNA sequencing analysis; format: functional, cell-based
[9] = biological target: Protein cereblon/NAD-dependent protein deacetylase sirtuin-7 (Homo sapiens) (UniProt Q9NRC8+Q96SW2); experiment: Protac activity at CRBN/Sirt7 in human A549 cells assessed as reduction in Sirt7 protein level at 0.1 to 10 uM by Western blot analysis; format: cell-based; conditions: dose 0.1-10 µM
Chain of Protein cereblon/NAD-dependent protein deacetylase sirtuin-7 (Homo sapiens) (Q96SW2 whole entry, looked up): as the sequence (Q96SW2 whole entry, looked up) above
Chain of Protein cereblon/NAD-dependent protein deacetylase sirtuin-7 (Homo sapiens) (Q9NRC8 whole entry, looked up): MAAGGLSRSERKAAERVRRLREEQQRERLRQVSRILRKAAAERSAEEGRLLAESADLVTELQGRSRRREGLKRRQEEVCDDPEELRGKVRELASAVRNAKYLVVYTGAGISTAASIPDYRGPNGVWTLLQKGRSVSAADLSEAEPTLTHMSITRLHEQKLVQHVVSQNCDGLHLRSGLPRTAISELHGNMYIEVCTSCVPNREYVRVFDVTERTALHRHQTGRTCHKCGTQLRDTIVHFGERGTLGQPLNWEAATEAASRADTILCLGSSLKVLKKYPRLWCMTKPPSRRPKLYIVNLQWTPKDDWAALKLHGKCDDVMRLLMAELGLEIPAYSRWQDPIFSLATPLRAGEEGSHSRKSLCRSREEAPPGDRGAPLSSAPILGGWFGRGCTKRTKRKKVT

A549 [10] = experiment: Induction of cell cycle arrest in human A549 cells assessed as accumulation of cells at G2/M phase at 20 uM measured after 72 hrs by propidium iodide staining based flow cytometry analysis; format: functional
A549 [11] = experiment: Effect on MAPK4 gene in human A549 cells at 10 uM measured after 20 hrs by RNA sequencing analysis; format: functional, cell-based
A549 [12] = experiment: Induction of apoptosis in human A549 cells assessed as early apoptotic cells at 2.5 uM incubated for 72 hrs by annexin V-FITC staining based flow cytometry (reference value: 0.099%); format: functional
[13] = biological target: T1, Protein cereblon/Histone deacetylase 8 (Homo sapiens); experiment: Protac activity at CRBN/HDAC8 in human A549 cells assessed as reduction in HDAC8 protein level at 10 uM by Western blot analysis relative to control; format: cell-based; design: scale not given: the % may be the effect or the level left
A549 [14] = experiment: Inhibition of HDAC8 foci formation in human A549 cells measured after 20 hrs by DAPI staining based immunofluorescence assay; format: functional, cell-based; conditions: dose 0.5-8 µM
A549 [15] = experiment: Downregulation of HSPA6 in human A549 cells measured after 20 hrs by proteomic analysis; format: functional, cell-based
A549 [16] = experiment: Antitumor activity against human A549 cells xenografted in NOD/SCID mouse at 5 mg/kg, ip administered every 5 days measured at day 30; format: functional, organism-based; conditions: time 30.0 day
A549 [17] = experiment: Effect on EREG gene in human A549 cells at 10 uM measured after 20 hrs by RNA sequencing analysis; format: functional, cell-based
A549 [18] = experiment: Induction of apoptosis in human A549 cells assessed as necrotic cells at 5 uM by annexin V-FITC staining based flow cytometry (reference value: 0%); format: functional
[19] = biological target: Protein cereblon/Histone deacetylase 3 (Homo sapiens) (UniProt O15379+Q96SW2); experiment: Protac activity at CRBN/HDAC3 in human A549 cells assessed as reduction in HDAC3 protein level at 0.1 to 10 uM by Western blot analysis; format: cell-based; conditions: dose 0.1-10 µM
Chain of Protein cereblon/Histone deacetylase 3 (Homo sapiens) (O15379 whole entry, looked up): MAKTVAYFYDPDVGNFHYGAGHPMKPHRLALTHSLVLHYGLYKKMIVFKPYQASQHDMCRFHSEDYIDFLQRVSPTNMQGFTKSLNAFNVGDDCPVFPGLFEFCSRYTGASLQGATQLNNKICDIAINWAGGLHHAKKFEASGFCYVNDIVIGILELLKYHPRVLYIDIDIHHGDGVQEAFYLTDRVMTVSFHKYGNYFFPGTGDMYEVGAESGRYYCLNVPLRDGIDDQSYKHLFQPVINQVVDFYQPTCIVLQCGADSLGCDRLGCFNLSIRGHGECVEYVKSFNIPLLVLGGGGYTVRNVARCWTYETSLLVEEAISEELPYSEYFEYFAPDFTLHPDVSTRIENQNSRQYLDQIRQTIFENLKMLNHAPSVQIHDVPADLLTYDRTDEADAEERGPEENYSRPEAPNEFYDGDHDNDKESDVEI
Chain of Protein cereblon/Histone deacetylase 3 (Homo sapiens) (Q96SW2 whole entry, looked up): as the sequence (Q96SW2 whole entry, looked up) above

A549 [20] = experiment: Antitumor activity against human A549 cells xenografted in NOD/SCID mouse assessed as decrease in HDAC8 expression at 5 mg/kg, ip administered every 5 days measured at day 30 under irradiation condition by […] analysis; format: functional, organism-based; conditions: time 30.0 day
A549 [21] = experiment: Induction of apoptosis in human A549 cells assessed as viable cells at 5 uM incubated with compound followed by irradiation by annexin V-FITC staining based flow cytometry (reference value: 89.7%); format: functional; conditions: A549, light or radiation study, read-out: Activity
A549 [22] = experiment: Downregulation of RIMKLB in human A549 cells measured after 20 hrs by proteomic analysis; format: functional, cell-based
A549 [23] = experiment: Induction of apoptosis in human A549 cells assessed as late apoptotic cells at 5 uM incubated with compound followed by irradiation by annexin V-FITC staining based flow cytometry (reference value: 3.07%); format: functional
A549 [24] = experiment: Induction of apoptosis in human A549 cells assessed as viable cells at 10 uM incubated for 72 hrs by annexin V-FITC staining based flow cytometry (reference value: 99.9%); format: functional; conditions: read-out: Activity
A549 [25] = experiment: Effect on MAFK gene in human A549 cells at 10 uM measured after 20 hrs by RNA sequencing analysis; format: functional, cell-based
A549 [26] = experiment: Downregulation of LAMTOR4 in human A549 cells measured after 20 hrs by proteomic analysis; format: functional, cell-based
A549 [27] = experiment: Downregulation of ABHD6 in human A549 cells measured after 20 hrs by proteomic analysis; format: functional, cell-based
[28] = biological target: T1, Protein cereblon/Histone deacetylase 8 (Homo sapiens); experiment: Protac activity at CRBN/HDAC8 in human A549 cells assessed as degradation of HDAC8 at 200 nM measured after 20 hrs by Western blot analysis relative to control; format: cell-based
[29] = biological target: T1, Protein cereblon/Histone deacetylase 8 (Homo sapiens); experiment: Protac activity at CRBN/HDAC8 in human A549 cells assessed as degradation of HDAC8 at 2 uM measured after 20 hrs by Western blot analysis relative to control; format: cell-based
HBEC3-KT = experiment: Antiproliferative activity against human HBEC3-KT cells at 0.1 to 10 uM measured after 72 hrs by CCK-8 method; format: functional, cell-based; conditions: dose 0.1-10 µM
Jurkat = experiment: Antiproliferative activity against human Jurkat cells at 0.1 to 10 uM measured after 72 hrs by CCK-8 method; format: functional, cell-based; conditions: dose 0.1-10 µM
A549 [30] = experiment: Induction of apoptosis in human A549 cells assessed as necrotic cells at 2.5 uM incubated for 72 hrs by annexin V-FITC staining based flow cytometry relative to control; format: functional
HCT-116 = experiment: Induction of apoptosis in human HCT-116 cells assessed as necrotic cells at 5 uM incubated for 48 hrs by annexin V FITC and propidium iodide based flow cytometry relative to control; format: functional
A549 [31] = experiment: Induction of apoptosis in human A549 cells assessed as late apoptotic cells at 2.5 uM incubated for 72 hrs by annexin V-FITC staining based flow cytometry (reference value: 0.048%); format: functional
[32] = biological target: T1, Protein cereblon/Histone deacetylase 8 (Homo sapiens); experiment: Protac activity at CRBN/HDAC8 in human A549 cells assessed as decrease in PGM1 expression at 0.1 to 10 uM under glucose deprivation condition by Western blot analysis; format: cell-based; conditions: dose 0.1-10 µM
A549 [33] = experiment: Inhibition of DNA damage repair in human A549 cells assessed as reduction in Ku80 protein level at 5 uM incubated for 24 hrs by immunofluorescence staining based analysis; format: functional, cell-based

Activity [4]: inactive
Activity [6]: 100%
Activity [9]: inactive
Activity [13]: > 90%
Activity [19]: inactive
Activity [28]: 39.7%
Activity [29]: 85.4%
Activity [32]: Active
Structure (SMILES): O=C1CCC(N2C(=O)c3cccc(NCc4cn(CCOCCOc5ccc(Cn6ccc7ccc(C(=O)NO)cc76)cc5)nn4)c3C2=O)C(=O)N1 (stereo unspecified)
Activity (A549 [1]): 24.2%
Activity (A549 [2]): 23.5%
inhibition (A549 [3]): Active
Activity (A549 [5]): 21.6%
Activity (A549 [7]): Active
Activity (A549 [8]): Active
Activity (A549 [10]): inactive
Activity (A549 [11]): Active
Activity (A549 [12]): 22.5%
inhibition (A549 [14]): Dose-Dependent Effect
Activity (A549 [15]): Active
Activity (A549 [16]): Active
Activity (A549 [17]): Active
Activity (A549 [18]): 2.37%
Activity (A549 [20]): Active
viability at 5 µM (A549 [21]): 66.3%
Activity (A549 [22]): Active
Activity (A549 [23]): 0.3%
viability at 10 µM (A549 [24]): 42.7%
Activity (A549 [25]): Active
Activity (A549 [26]): Active
Activity (A549 [27]): Active
Activity (HBEC3-KT): Active
Activity (Jurkat): Active
Activity (A549 [30]): 0.57%
Activity (HCT-116): 10%
Activity (A549 [31]): 15.3%
inhibition (A549 [33]): Active
